Results as given in PMC11302729, “Repurposing Hsp90 inhibitors as antimicrobials targeting two-component systems identifies compounds leading to loss of bacterial membrane integrity” (Microbiology Spectrum, 2024).
≈ marks a conversion by molar mass, not a printed value. Read-outs that look alike come from different tables or passages of the source.

Columns and labels:
S. aureus str. Newman = test: Membrane permeability using SYTOX-Green, flow cytometry; type: cell-based; details: for % FITC stained bacteria 0.5 xMIC: 0.5× MIC; for % FITC stained bacteria 2 xMIC: 2× MIC; for Membrane damage: if considered to cause membrane damage to S. aureus
Description: S. aureus str. Newman was grown to exponential phase (OD600 = 0.4) in MHB media. […] Nisin (Sigma-Aldrich) and novobiocin (Sigma-Aldrich) were used as positive and negative controls for membrane permeabilization, and stained and unstained untreated controls were also included in each assay. After exposure, samples were centrifuged at 4,000 r.p.m. for 5 min and resuspended in PBS. Bacteria were dyed by adding the fluorescent nuclear stain SYTOX Green (Molecular Probes, Invitrogen) to a final concentration of 0.5 µM and incubating for 5 min in the dark. Samples were centrifuged again and resuspended with PBS to remove unbound stain. Three hundred microliters of each sample was transferred to a clean well in a 96-well clear-bottom plate (Corning Incorporated). Fluorescence was measured in CytoFLEX flow cytometer (Beckman Coulter, Brea, CA, USA) using the green (FITC) channel with the excitation wavelength at 488 nm. Overlay histograms were created with CytExpert Software (Beckman Coulter, Brea, CA, USA).

[1] = test system: Escherichia coli D21f2 with a truncated LPS barrier; test: MIC (microdilution) against E. coli D21f2; type: cell-based
Excerpt: (§1) We also tested the inhibitory activity of compounds in two different E. coli mutants: (i) E. coli JW5503 that lacks TolC efflux pumps and (ii) E. coli D21f2 that has a defective LPS inner core increasing permeability of the outer membrane. E. coli D21f2 has a slightly higher susceptibility to DPP compounds than E. coli ATCC25922.
(§2) Staphylococcus aureus str. Newman, Enterococcus faecalis vanA (strain E0155), Enterococcus faecium vanA (strain E1654), Escherichia coli ATCC 25922, Escherichia coli D21f2 with a truncated LPS barrier, Escherichia coli JW5503 (ΔtolC) ([49]), Pseudomonas aeruginosa ATCC 27853, and Pasteurella haemolytica ATCC 29701 were grown in Mueller-Hinton Broth (MHB) (Oxoid, Basingstoke, UK) and incubated at 37°C.
(§3) The minimal inhibitory concentration was determined using the microdilution method following the guidelines of the European Committee on Antimicrobial Susceptibility Testing ([50]). Briefly, a series of twofold dilutions in MHB of each compound were made in a 96-well plate, with final concentrations ranging from 50 to 0.39 µg/mL in 100 µL final volume per well. A hundred microliters of 1:100 dilution of an overnight culture of the correspondent bacteria in MHB was added to each well. Plates were incubated for 18 hours at 37°C. MIC was recorded as the lowest concentration where no growth was detected as measured by optical density at 600 nm (OD600) using Spectramax M5 (Molecular Devices LLC, San Jose, CA, USA). […] Wells containing bacteria with or without 1% DMSO and medium alone were included as controls in every plate.

[2] = test system: Enterococcus faecium vanA (strain E1654); test: MIC (microdilution) against E. faecium; type: cell-based; details: for MIC: Enterococcus faecium, read-out: MIC E. faecium; for MIC E. faecium: Table ST1
Description: as §2, §3

[3] = test system: Escherichia coli ATCC 25922; test: MIC (microdilution) against E. coli; type: cell-based; details: for MIC: Escherichia coli; for MIC E. coli: Table ST1
Description: as §2, §3

E. coli EnvZ = target: T1, E. coli EnvZ (Escherichia coli, UniProt P0AEJ4); test: HK autophosphorylation inhibition, EnvZ; type: biochemical
T1 construct: Cytoplasmic domains from S. aureus PhoR and E. coli EnvZ; His6; made in house; host or cells: E. coli RIL
Description: (§4) Cytoplasmic domains from S. aureus PhoR and E. coli EnvZ as well the CA domain of Thermotoga maritima CheA were cloned in pNIC28-Bsa4 ([54]) plasmid containing His6-tag expressed in E. coli RIL and purified as previously described ([21], [55], [56]) using His-affinity and size exclusion chromatography. Briefly, E. coli RIL strains carrying the appropriate plasmid were grown in 1 L Luria broth (LB) (Merck Millipore) supplemented with kanamycin (100 µg/mL) with shaking (200 r.p.m.) at 37°C. When OD600 reached 0.5, 1 mM isopropyl-ß-D-1-thiogalactopyranoside (IPTG) was added to induce protein expression and cells were grown for 3 more hours. Cells were harvested by centrifugation (4,000 g, 4°C), resuspended in 40 mL buffer A (50 mM Tris-HCl pH 8.0, 0.5 M NaCl, 10% glycerol, and 1 mM phenylmethanesulfonyl fluoride), sonicated (4°C, 5 min with pulses of 15 sec at intervals of 1 min), and centrifuged (11,000 g, 4°C, 60 min). Supernatant was passed through a 5-mL HisTrap HP column (GE Healthcare) equilibrated in buffer A using the AKTA system (GE Healthcare). His-column was washed with buffer A (80 mL), and a linear gradient of imidazole (range 0 to 0.25 M) in buffer A was applied. The purest fractions evaluated by SDS-PAGE were collected, concentrated by ultrafiltration in a Amicon Ultra-15 (10- or 30-kDa exclusion) (Merck Millipore), and further purified by gel filtration using Superdex 200 column (GE Healthcare), equilibrated in buffer B (50 mM TrisHCl, pH 8.0, 0.2 M NaCl, and 5% glycerol). Purified proteins were then concentrated using ultrafiltration and stored at −80°C.
Autophosphorylation inhibition assays were performed in kinase assay buffer [100 mM Tris-HCl (pH 8.0), 5 mM MgCl2, 10 mM DTT], containing 5 µg of purified HK and 10 mM ATP for 30 min at 25°C. The reaction was stopped by adding gel loading buffer containing 16% SDS before loading the reaction on a 12% SDS-PAGE. […] To detect autophosphorylation, the gel was transferred to a nitrocellulose membrane (GE Healthcare) at 100 V in the transfer buffer (25 mM Tris, 192 mM Glycine, 10% Methanol). The membrane was then blocked using Tris-buffered saline solution with 0.1% vol/vol Tween 20 (TBS-T) supplied with 5% bovine serum albumin. The phosphorylated histidine was detected by western blotting by then incubating the membrane for 60 min with 1:1,000 anti-N1-phosphohistidine antibody (Merck Millipore) in TBS-T followed by a washing step for 30 min with TBS-T and a final 60-min incubation with 1:10,000 horseradish […] anti-rabbit IgG (Promega) in TBS-T. Chemiluminescent reaction was measured using Pierce ECL immunoblotting substrate (Thermo Scientific) in a LAS 3000 image analyzer (Fujifilm Life Science, Tokyo, Japan) followed by densitometric analysis using Multi Gauge image-analysis software (Fujifilm Life Science, Tokyo, Japan). The inhibitor concentrations required to halve the chemiluminescence intensity (IC50) were determined using Prism 4.1 (GraphPad Software, San Diego, CA, USA).

[4] = test system: Escherichia coli JW5503 (ΔtolC); test: MIC (microdilution) against E. coli JW5503; type: cell-based; details: for MIC: Escherichia coli, read-out: MIC E. coli JW5503; for MIC E. coli JW5503: Table ST1, ΔtolC mutant
Excerpt: as §1, §2, §3

S. aureus PhoR = S. aureus PhoR (Staphylococcus aureus, UniProt Q2FXN7); test: HK autophosphorylation inhibition, PhoR; type: biochemical; details: ± SD, n = 2; 10 mM ATP
Description: as §4
Autophosphorylation inhibition assays were performed in kinase assay buffer [100 mM Tris-HCl (pH 8.0), 5 mM MgCl2, 10 mM DTT], containing 5 µg of purified HK and 10 mM ATP for 30 min at 25°C. The reaction was stopped by adding gel loading buffer containing 16% SDS before loading the reaction on a 12% SDS-PAGE. […] The phosphorylated histidine was detected by western blotting by then incubating the membrane for 60 min with 1:1,000 anti-N1-phosphohistidine antibody (Merck Millipore) in TBS-T followed by a washing step for 30 min with TBS-T and a final 60-min incubation with 1:10,000 horseradish […] anti-rabbit IgG (Promega) in TBS-T. Chemiluminescent reaction was measured using Pierce ECL immunoblotting substrate (Thermo Scientific) in a LAS 3000 image analyzer (Fujifilm Life Science, Tokyo, Japan) followed by densitometric analysis using Multi Gauge image-analysis software (Fujifilm Life Science, Tokyo, Japan). The inhibitor concentrations required to halve the chemiluminescence intensity (IC50) were determined using Prism 4.1 (GraphPad Software, San Diego, CA, USA).

[5] = ATCC25922, Table 1, read-out: MIC E. coli
[6] = bound from first screening at 2 mM
[7] = ATCC25922, read-out: MIC E. coli

Chain of S. aureus PhoR (Q2FXN7 entry or part of it): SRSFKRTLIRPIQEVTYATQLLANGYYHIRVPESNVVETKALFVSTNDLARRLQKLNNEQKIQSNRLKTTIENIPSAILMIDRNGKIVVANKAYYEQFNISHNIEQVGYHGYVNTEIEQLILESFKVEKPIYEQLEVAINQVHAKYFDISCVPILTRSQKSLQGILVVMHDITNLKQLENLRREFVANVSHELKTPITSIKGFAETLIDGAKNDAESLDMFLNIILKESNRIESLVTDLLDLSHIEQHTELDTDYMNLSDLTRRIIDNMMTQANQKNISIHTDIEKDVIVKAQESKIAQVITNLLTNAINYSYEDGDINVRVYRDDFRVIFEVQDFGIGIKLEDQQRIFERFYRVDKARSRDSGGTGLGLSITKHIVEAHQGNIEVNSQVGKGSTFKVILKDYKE
T1 sequence (P0AEJ4 180-450): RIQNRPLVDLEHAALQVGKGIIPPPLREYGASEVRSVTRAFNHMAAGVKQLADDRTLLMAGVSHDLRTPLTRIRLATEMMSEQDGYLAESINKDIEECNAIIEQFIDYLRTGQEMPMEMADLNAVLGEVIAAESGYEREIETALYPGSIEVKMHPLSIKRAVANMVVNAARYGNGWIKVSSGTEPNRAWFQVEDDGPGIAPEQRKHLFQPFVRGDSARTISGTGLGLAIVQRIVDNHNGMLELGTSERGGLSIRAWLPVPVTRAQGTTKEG

SMILES	% FITC stained bacteria 0.5 xMIC (S. aureus str. Newman; 5 min exposure)	% FITC stained bacteria 1 xMIC (S. aureus str. Newman; 1× MIC, 5 min exposure)	% FITC stained bacteria 2 xMIC (S. aureus str. Newman; 5 min exposure)	Membrane damage (S. aureus str. Newman)	MIC ([1]; read-out: MIC E coli D21f2)	MIC ([1]; read-out: MIC E. coli D21f2)	MIC [2]	MIC E. faecium [2]	MIC [3, 5]	MIC E. coli [3]	IC50 (E. coli EnvZ; [6])	MIC [4]	MIC E. coli JW5503 [4]	IC50 (S. aureus PhoR)	MIC [3, 7]	IC50 (E. coli EnvZ; ± SD, n = 2, 10 mM ATP)	Loss of membrane integrity (S. aureus str. Newman; 1× MIC, 5 min exposure)
COc1ccc(-c2[nH]nc(C(F)(F)F)c2-c2ccccc2)c(O)c1 [DPP-2]	49.81%	54.03%	63.56%	YES	50 µg/mL (≈ 150 µM)	50 µg/mL (≈ 150 µM)	25 µg/mL (≈ 74.8 µM)	25 µg/mL (≈ 74.8 µM)	> 250 µg/mL	>250 µg/mL	< 2000 µM	6.25 µg/mL (≈ 18.7 µM)	6.25 µg/mL (≈ 18.7 µM)				
COc1ccc(-c2c(C(F)(F)F)n[nH]c2-c2ccc(O)cc2O)cc1 [DPP-12]	9.04%	24.16%	29.11%	MILD	> 50 µg/mL	> 250 µg/mL	50 µg/mL (≈ 143 µM)	50 µg/mL (≈ 143 µM)		>250 µg/mL		12.5 µg/mL (≈ 35.7 µM)	12.5 µg/mL (≈ 35.7 µM)	328 ± 4.1 µM	> 250 µg/mL	427 ± 9.1 µM	
Oc1ccc(-c2n[nH]c(C(F)(F)F)c2-c2ccc(Cl)cc2)c(O)c1 [DPP-5]	13.40%	13.42%	41.29%	MILD	50 µg/mL (≈ 141 µM)	50 µg/mL (≈ 141 µM)	12.5 µg/mL (≈ 35.2 µM)	12.5 µg/mL (≈ 35.2 µM)	50 µg/mL (≈ 141 µM)	50 µg/mL (≈ 141 µM)		3.12 µg/mL (≈ 8.8 µM)	3.12 µg/mL (≈ 8.8 µM)	95 ± 5.6 µM		117 ± 6.3 µM	did not cause significant loss of membrane integrity
CCOc1ccc(-c2[nH]nc(C(F)(F)F)c2-c2ccc(Cl)cc2)c(O)c1 [DPP-7]	42.44%	50.30%	54.59%	YES	25 µg/mL (≈ 65.3 µM)	25 µg/mL (≈ 65.3 µM)	3.12 µg/mL (≈ 8.15 µM)	3.12 µg/mL (≈ 8.15 µM)	> 250 µg/mL	>250 µg/mL	< 2000 µM	3.12 µg/mL (≈ 8.15 µM)	3.12 µg/mL (≈ 8.15 µM)				
COc1ccc(-c2c(C(F)(F)F)n[nH]c2-c2ccc(OC)cc2O)cc1 [DPP-13]	35.10%	45.40%	45.44%	YES	> 50 µg/mL	> 250 µg/mL	25 µg/mL (≈ 68.6 µM)	25 µg/mL (≈ 68.6 µM)		>250 µg/mL		12.5 µg/mL (≈ 34.3 µM)	12.5 µg/mL (≈ 34.3 µM)	89 ± 6.9 µM	> 250 µg/mL	175 ± 10.1 µM	
COc1ccc(-c2[nH]nc(C(F)(F)F)c2-c2ccc(Cl)cc2)c(O)c1 [DPP-6]	36.93%	44.48%	48.91%	YES	25 µg/mL (≈ 67.8 µM)	25 µg/mL (≈ 67.8 µM)	6.25 µg/mL (≈ 16.9 µM)	6.25 µg/mL (≈ 16.9 µM)	> 250 µg/mL	>250 µg/mL		3.12 µg/mL (≈ 8.46 µM)	3.12 µg/mL (≈ 8.46 µM)	55 ± 3.8 µM		98 ± 11.8 µM	
